Laboratory results from PMC10352325, “Nitro-benzylideneoxymorphone, a bifunctional mu and delta opioid receptor ligand with high mu opioid receptor efficacy” (Frontiers in Pharmacology, 2023).
Several values for one entry are separate records, joined by “and”; a condition that tells them apart may be missing. Identical values can stand only once.

Legend:
[1] = target: T1, DOPr (Homo sapiens, UniProt P41143); assay: biochemical; conditions: for Emax: read-out: DOPr Emax ±SEM; for Selectivity DOPr/MOPr (EC50): ratio of [35S]GTPγS EC50
T1 construct: host or cells: CHO

[2] = target: T1, DOPr; assay: biochemical; assay type: binding; conditions: for DOPr ΔG: Gibb's free energy converted from experimental Ki
Protocol: (§1) Cell lines, cell culture, and drug preparation. The hDOPr-CHO cell line was a generous gift from Dr. Larry Toll at the Torrey Pines Institute. The hMOPr- and hKOPr-CHO cell lines were generous gifts from John M. Streicher at the University of Arizona. All cells were cultured in 50:50 DMEM/F12 media with 10% heat-inactivated FBS and 1X penicillin/streptomycin supplement (all Gibco brand) in a 37°C humidified incubator with 5% CO2 atmosphere. Propagation cultures were further maintained with 500 μg/mL G418. Cultures were propagated for no more than 30 passages before discarding. […] Cell pellets were resuspended in 50 mM Tris HCl pH 7.4 and homogenized with a tissue grinder for 15–30 s on ice. Crude membranes were spun down at 15,000 g for 30 min. This process was repeated, and membrane preparations were stored at −80°C prior to use.
(§2) Briefly, these reactions were miniaturized to a 400 μL volume in 96 well plates and incubated at RT for 1 h at DOPr-, KOPr- and MOPr-CHO membrane preparations. The reactions were terminated by rapid filtration through 96-well format GF/B filter plates (PerkinElmer) and washed with cold 25 mM Tris HCl pH 7.4 buffer, dried, and added ECOLUME^TM scintillation cocktail from MP Biomedicals (Santa Cruz, CA, United States). The plates were read in a MicroBeta2 96-well format 6 detector scintillation counter (PerkinElmer). KI values were calculated using the IC50 of each competitor ligand and the previously established KD of ^3H-diprenorphine in each cell line using a competition binding model (GraphPad Prism 7.0).

[3] = target: T2, MOPr (Homo sapiens, UniProt P35372); assay: biochemical; assay type: binding; conditions: for MOPr ΔG: Gibb's free energy converted from experimental Ki; for Ki: [3H]-diprenorphine, CHO membranes, n = 3, mean ± SEM
T2 construct: host or cells: CHO
Protocol: as §1, §2

[4] = target: T3, KOPr (Homo sapiens, UniProt P41145); assay: biochemical; assay type: binding; conditions: for Ki: [3H]-diprenorphine, CHO membranes, n = 3, mean ± SEM; for Selectivity KOPr/MOPr (Ki): ratio of binding Ki
T3 construct: host or cells: CHO
Protocol: as §1, §2

[5] = target: T2, MOPr; assay: [35S]GTPγS coupling, MOPr-CHO membranes; assay type: biochemical; conditions: for Emax: read-out: MOPr Emax ±SEM
[6] = target: T3, KOPr; assay: [35S]GTPγS coupling, KOPr-CHO membranes; assay type: biochemical; conditions: Emax% relative to U69,593, read-out: KOPr Emax ±SEM
[7] = target: T1, DOPr; assay: βarrestin2 recruitment (DiscoveRx PathHunter); assay type: cell-based
Text: We further evaluated 12 in βarrestin2 recruitment assays (DiscoveRx) to evaluate DOPr agonist vs. antagonist efficacy in a higher efficacy requiring assay (Supplementary Figure S1). […] None of the compounds in this series stimulated KOPr-mediated G-protein recruitment. Retaining selectivity over KOPr is vital because KOPr agonists cause dysphoria and hallucinations ([Bruchas et al., 2007]; [Cunningham et al., 2011]).
βarrestin2 recruitment. βarrestin2 recruitment in CHO cells expressing […] was measured using the DiscoverRx PathHunter® assay kit (DiscoveRx, Fremont, CA) according to the manufacturer’s protocol. Assays were performed on at least three separate occasions in triplicate. Luminescence was read using a Synergy 2 plate reader (BioTek, Winooski, VT).

[8] = tested on: C57BL/6 mice; assay: Toxicology on chronic administration (body weight, health); assay type: in vivo, mouse; conditions: for weight-loss on chronic administration: 32 mg/kg, C57BL/6 WT mice, tolerance experiment; for health on repeated administration (need for euthanasia): preliminary experiments, without saline supplement
[9] = tested on: C57BL/6 mice; assay: Chronic administration and antinociceptive tolerance, 50°C WWTW; assay type: in vivo, mouse; conditions: for day of first statistically significant antinociceptive tolerance: 10 mg/kg morphine, 32 mg/kg 12, i.p. 3x daily, WT mice
Protocol: As expected, the OPr antagonist and MOPr KO experiments indicate that antinociception and likely tolerance are MOPr-mediated effects.
Chronic administration and antinociceptive tolerance. To investigate antinociceptive tolerance, either C57BL/6 WT or MOR KO mice were administered (i.p.) drug 2-3 times a day as indicated (Figure 3). […]. Mice administered with 12 were injected with 0.5 mL 0.9% saline (s.c.) twice daily. Mice were injected again at 7 p.m. on day 1, but neither weighed nor tested for antinociception. […]. A two-way analysis of variance (ANOVA) was conducted for all tolerance assays. The significance threshold was p < 0.05, and a Tukey post hoc test followed all significant ANOVAs.

[10] = tested on: C57BL/6 mice; assay: Acute antinociception, 50°C warm water tail withdrawal (WWTW); assay type: in vivo, mouse; conditions: i.p.; for tail withdrawal latency, dose-response: 30 min before 50°C WWTW, C57BL/6 WT mice
Protocol: The 50°C warm water tail withdrawal (WWTW) antinociception assay is a standard preclinical pain assay, in which clinical analgesics increase the latency of tail removal from the warm water (Figure 2A).
To compare the total antinociceptive activity over time, we determined the area under the curve (AUC) of each ligand’s time-course.
Acute antinociception: 50°C warm-water tail withdrawal test in C57BL/6 mice. […] A maximum cutoff time of 20 s was implemented to prevent tissue damage. […] Drug-stimulated antinociception was expressed as a percentage of maximum possible effect (% MPE), where % MPE = (drug latency—baseline latency)/(cutoff latency—baseline latency) × 100. The acute antinociception results were analyzed with a one-way ANOVA followed by a post hoc Dunnett test comparing the drug(s) to vehicle.

[11] = tested on: rats; design: method as in Mada et al., 2020; conditions: ref Mada et al., 2020; cited from earlier work

T3 sequence (P41145 whole entry): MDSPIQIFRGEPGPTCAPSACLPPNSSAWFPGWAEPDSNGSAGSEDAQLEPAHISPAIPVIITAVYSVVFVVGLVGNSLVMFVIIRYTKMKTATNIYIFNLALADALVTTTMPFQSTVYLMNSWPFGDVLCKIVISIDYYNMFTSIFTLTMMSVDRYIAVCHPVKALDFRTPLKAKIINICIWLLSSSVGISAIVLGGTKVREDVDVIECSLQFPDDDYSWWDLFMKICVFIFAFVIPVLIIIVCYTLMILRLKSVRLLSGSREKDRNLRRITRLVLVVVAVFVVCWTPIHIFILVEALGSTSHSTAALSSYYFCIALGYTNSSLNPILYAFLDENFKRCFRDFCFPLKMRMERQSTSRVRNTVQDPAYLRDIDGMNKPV
T2 sequence (P35372 whole entry): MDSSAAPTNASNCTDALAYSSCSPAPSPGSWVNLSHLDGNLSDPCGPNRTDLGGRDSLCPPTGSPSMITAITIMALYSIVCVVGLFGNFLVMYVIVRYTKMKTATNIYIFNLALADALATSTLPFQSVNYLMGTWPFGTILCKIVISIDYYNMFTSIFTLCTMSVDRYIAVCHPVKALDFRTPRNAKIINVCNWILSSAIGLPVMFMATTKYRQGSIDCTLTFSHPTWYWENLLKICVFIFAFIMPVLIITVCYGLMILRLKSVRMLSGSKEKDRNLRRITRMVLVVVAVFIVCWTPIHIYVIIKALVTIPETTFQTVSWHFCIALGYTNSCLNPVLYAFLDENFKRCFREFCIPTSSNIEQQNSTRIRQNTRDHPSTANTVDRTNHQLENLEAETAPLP
T1 sequence (P41143 whole entry): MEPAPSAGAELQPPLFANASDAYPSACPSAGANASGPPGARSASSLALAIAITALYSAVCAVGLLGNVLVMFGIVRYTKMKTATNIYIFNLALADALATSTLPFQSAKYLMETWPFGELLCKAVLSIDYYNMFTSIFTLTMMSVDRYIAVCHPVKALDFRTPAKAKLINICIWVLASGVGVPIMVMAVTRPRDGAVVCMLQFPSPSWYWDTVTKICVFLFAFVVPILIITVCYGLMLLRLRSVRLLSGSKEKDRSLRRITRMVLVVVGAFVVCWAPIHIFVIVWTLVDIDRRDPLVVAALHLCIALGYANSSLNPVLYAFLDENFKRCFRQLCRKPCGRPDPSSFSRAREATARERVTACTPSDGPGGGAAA

SMILES | Emax [1] [%] | Ki [2] [nM] | DOPr ΔG [2] [kcal/mol] | MOPr ΔG [3] [kcal/mol] | Ki [3] | Ki [4] [nM] | Selectivity KOPr/MOPr (Ki) [4] | EC50 [5] [nM] | Emax [5] [%] | EC50 [1] [nM] | Selectivity DOPr/MOPr (EC50) [1] | other results
CN1CC[C@]23c4c5ccc(O)c4O[C@H]2C(=O)/C(=C/c2ccc4ccccc4c2)C[C@@]3(O)[C@H]1C5 [Compound 14] | < 15 | 36 ± 4 | -10.22 ± 0.06 | -12.20 ± 0.29 | 1.3 ± 0.8 nM | 390 ± 140 | 299 | 12 ± 5 | 78 ± 11 | – | – | Emax [6]: < 15%
CN1CC[C@]23c4c5ccc(O)c4O[C@H]2C(=O)/C(=C/c2ccc([N+](=O)[O-])cc2)C[C@@]3(O)[C@H]1C5 [Compound 12, Nitro-benzylideneoxymorphone] | 28 ± 4 | 10 ± 3 | -10.98 ± 0.16 | -12.42 ± 0.17 | 0.9 ± 0.3 nM | 180 ± 60 | 197 | 2.2 ± 0.5 | 87 ± 7 | 20 ± 5 | 9.1 | Kb [7]: 32 nM; DOPr-mediated βarrestin2 recruitment, compound alone ([7]; agonist mode, any concentration): did not stimulate; weight-loss on chronic administration [8]: equal or greater weight-loss than those treated with morphine; health on repeated administration (need for euthanasia) [8]: became sick and had to be euthanized; day of first statistically significant antinociceptive tolerance [9]: 2 days; antinociception after naloxone pretreatment ([9]; 32 mg/kg 12, 10 mg/kg naloxone pretreatment, C57BL/6 WT): blocked antinociception; antinociception in MOPr KO mice ([9]; 32 mg/kg i.p., C57BL/6 MOPr KO): did not show antinociception; MOPr potency relative to that reported for oxymorphone ([5]; higher potency than oxymorphone (Olson et al., 2019)): approximately 10 fold; area under the curve (AUC) of antinociceptive time-course ([10]; 32 mg/kg 12 or 10 mg/kg morphine, tested every 30 min): 9247 s*min; tail withdrawal latency, dose-response [10]: dose-dependent increase in tail withdrawal latency; antinociceptive potency relative to morphine ([10]; less potent than morphine, WWTW): approximately 3 fold; Emax [6]: < 15%
CN1CC[C@]23c4c5ccc(O)c4O[C@H]2C(=O)/C(=C/c2ccccc2)C[C@@]3(O)[C@H]1C5 [Compound 5, 7-E-benzylideneoxymorphone] | 22 ± 4 | – | – | – | – | – | – | 63 ± 25 | 53 ± 9 | 26 ± 4 | – | weight-loss on chronic administration [8]: neither weight-loss nor antinociception; antinociception in the warm water tail withdrawal test [11]: < 20 % MPE; antinociception in the tolerance paradigm ([9]; 32 mg/kg, C57BL/6 WT mice): neither weight-loss nor antinociception; tail withdrawal latency, dose-response [10]: negligible antinociception
CN1CC[C@]23c4c5ccc(O)c4O[C@H]2C(=O)/C(=C/c2ccc(F)cc2)C[C@@]3(O)[C@H]1C5 [Compound 7] | < 15 | 55 ± 8 | -9.97 ± 0.08 | -10.57 ± 0.28 | 19.9 ± 11.7 nM | > 1000 | >50 | 95 ± 25 | 69 ± 16 | – | – | –
CN1CC[C@]23c4c5ccc(O)c4O[C@H]2[C@@H](O)C=C[C@H]3[C@H]1C5 [morphine, reference compound] | – | – | – | – | – | – | – | – | – | – | – | health on repeated administration (need for euthanasia) [8]: did not require euthanasia; day of first statistically significant antinociceptive tolerance [9]: 3 days
CN1CC[C@]23c4c5ccc(O)c4O[C@H]2C(=O)/C(=C/c2ccc(Cl)cc2)C[C@@]3(O)[C@H]1C5 [Compound 8] | 9 ± 3 | 47 ± 16 | -10.06 ± 0.17 | -10.46 ± 0.03 | 23.8 ± 1.2 nM | > 1000 | >42 | > 1000 | – | 145 ± 14 | <0.15 | –
COc1ccc(/C=C2\C[C@@]3(O)[C@H]4Cc5ccc(O)c6c5[C@@]3(CCN4C)[C@@H](O6)C2=O)cc1 [Compound 10] | 30 ± 9 | 37 ± 9 | -10.20 ± 0.13 | -10.92 ± 0.12 | 11 ± 2.4 nM | > 1000 | >90 | 172 ± 55 | 80 ± 5 | 102 ± 8 | 0.59 | –
CN1CC[C@]23c4c5ccc(O)c4O[C@H]2C(=O)/C(=C/c2ccc(O)cc2)C[C@@]3(O)[C@H]1C5 [Compound 11] | 21 ± 6 | 37 ± 7 | -10.20 ± 0.10 | -10.49 ± 0.14 | 22.7 ± 6 nM | > 1000 | >44 | 275 ± 100 | 85 ± 6 | 97 ± 40 | 0.35 | –
CN1CC[C@]23c4c5ccc(O)c4O[C@H]2C(=O)/C(=C/c2ccc(Br)cc2)C[C@@]3(O)[C@H]1C5 [Compound 9] | < 15 | 121 ± 45 | -9.50 ± 0.19 | -10.16 ± 0.14 | 39.9 ± 10.5 nM | > 1000 | >25 | > 1000 | – | – | – | –
CN1CC[C@]23c4c5ccc(O)c4O[C@H]2C(=O)/C(=C/c2cccc4ccccc24)C[C@@]3(O)[C@H]1C5 [Compound 13] | 36 ± 10 | 56 ± 20 | -9.95 ± 0.18 | -9.78 ± 0.17 | 75 nM and 74.8 nM | > 1000 | >13 | > 1000 | – | 102 ± 37 | – | –
